In the NIST ThermoML archive (doi:10.1021/je1003065):
Numbers after ± are expanded uncertainties.

Assay: mn = molality of the nth substance listed, in mol/kg
Settings: Liquid, Vibrating tube method

[Br-].[Li+] [lithium bromide] + CCO
mass density (353.15 K, 39784 kPa, m1 = 0.9499): 834.79 ± 1.7 kg/m3 | mass density (353.15 K, 39945 kPa, m1 = 2.833): 939.73 ± 1.9 kg/m3 | mass density (353.15 K, 39986 kPa, m1 = 0.2335): 790.37 ± 1.6 kg/m3 | mass density (353.15 K, 40152 kPa, m1 = 0.5972): 813.43 ± 1.7 kg/m3 | mass density (353.15 K, 49925 kPa, m1 = 0.9499): 842.49 ± 1.7 kg/m3 | mass density (353.15 K, 49993 kPa, m1 = 0.5972): 821.26 ± 1.7 kg/m3 | mass density (353.15 K, 59926 kPa, m1 = 0.9499): 849.56 ± 1.8 kg/m3 | mass density (353.15 K, 60014 kPa, m1 = 0.2335): 805.45 ± 1.7 kg/m3 | mass density (353.15 K, 60014 kPa, m1 = 2.833): 952.95 ± 1.9 kg/m3 | mass density (353.15 K, 60225 kPa, m1 = 0.5972): 828.81 ± 1.7 kg/m3 | mass density (353.15 K, 69845 kPa, m1 = 0.9499): 856.11 ± 1.8 kg/m3 | mass density (353.15 K, 69979 kPa, m1 = 0.5972): 835.44 ± 1.8 kg/m3 | mass density (353.15 K, 79924 kPa, m1 = 0.9499): 862.38 ± 1.8 kg/m3 | mass density (353.15 K, 79968 kPa, m1 = 2.833): 964.64 ± 1.9 kg/m3 | mass density (353.15 K, 80004 kPa, m1 = 0.2335): 818.76 ± 1.8 kg/m3 | mass density (353.15 K, 80139 kPa, m1 = 0.5972): 841.77 ± 1.8 kg/m3 | mass density (353.15 K, 90021 kPa, m1 = 0.9499): 868.33 ± 1.8 kg/m3 | mass density (353.15 K, 99895 kPa, m1 = 2.833): 975.38 ± 2 kg/m3 | mass density (353.15 K, 99925 kPa, m1 = 0.9499): 873.94 ± 1.9 kg/m3 | mass density (353.15 K, 99987 kPa, m1 = 0.2335): 829.93 ± 1.8 kg/m3 | mass density (353.16 K, 1827 kPa, m1 = 2.272): 878.19 ± 1.8 kg/m3 | mass density (353.16 K, 2037 kPa, m1 = 0.5972): 777.89 ± 1.6 kg/m3 | mass density (353.16 K, 5076 kPa, m1 = 2.272): 881.19 ± 1.8 kg/m3 | mass density (353.16 K, 30024 kPa, m1 = 2.833): 932.51 ± 1.9 kg/m3 | mass density (353.16 K, 50031 kPa, m1 = 0.2335): 798.55 ± 1.7 kg/m3 | mass density (353.16 K, 69784 kPa, m1 = 2.833): 958.82 ± 1.9 kg/m3 | mass density (353.16 K, 89993 kPa, m1 = 0.5972): 847.35 ± 1.8 kg/m3 | mass density (353.17 K, 10149 kPa, m1 = 0.5972): 786.15 ± 1.6 kg/m3 | mass density (353.17 K, 70025 kPa, m1 = 0.2335): 812.93 ± 1.7 kg/m3 | mass density (353.18 K, 100098 kPa, m1 = 0.5972): 852.48 ± 1.8 kg/m3 | mass density (353.2 K, 79893 kPa, m1 = 3.368): 991.32 ± 2 kg/m3 | mass density (353.2 K, 89986 kPa, m1 = 3.368): 996.68 ± 2 kg/m3 | mass density (353.2 K, 99526 kPa, m1 = 3.368): 1001.5 ± 2 kg/m3 | mass density (353.21 K, 1063 kPa, m1 = 3.368): 935.92 ± 1.9 kg/m3 | mass density (353.21 K, 4909 kPa, m1 = 3.368): 939.35 ± 1.9 kg/m3 | mass density (353.21 K, 10311 kPa, m1 = 3.368): 944.02 ± 1.9 kg/m3 | mass density (353.21 K, 30003 kPa, m1 = 3.368): 959.64 ± 1.9 kg/m3 | mass density (353.21 K, 40073 kPa, m1 = 3.368): 966.87 ± 1.9 kg/m3 | mass density (353.21 K, 49925 kPa, m1 = 3.368): 973.5 ± 1.9 kg/m3 | mass density (353.21 K, 59786 kPa, m1 = 3.368): 979.72 ± 2 kg/m3 | mass density (353.21 K, 69928 kPa, m1 = 3.368): 985.74 ± 2 kg/m3 | mass density (353.22 K, 19643 kPa, m1 = 3.368): 951.68 ± 1.9 kg/m3 | mass density (373.11 K, 79585 kPa, m1 = 2.272): 924.75 ± 1.9 kg/m3 | mass density (373.12 K, 2208 kPa, m1 = 3.368): 920.02 ± 1.8 kg/m3 | mass density (373.12 K, 5044 kPa, m1 = 3.368): 922.8 ± 1.9 kg/m3 | mass density (373.12 K, 19844 kPa, m1 = 3.368): 936.43 ± 1.9 kg/m3 | mass density (373.12 K, 59597 kPa, m1 = 2.272): 911.69 ± 1.9 kg/m3 | mass density (373.12 K, 69993 kPa, m1 = 2.272): 918.69 ± 1.9 kg/m3 | mass density (373.13 K, 10014 kPa, m1 = 3.368): 927.55 ± 1.9 kg/m3 | mass density (373.13 K, 20555 kPa, m1 = 0.5972): 780.15 ± 1.6 kg/m3 | mass density (373.13 K, 69957 kPa, m1 = 0.2335): 799.09 ± 1.7 kg/m3 | mass density (373.14 K, 2369 kPa, m1 = 1.462): 814.46 ± 1.6 kg/m3 | mass density (373.14 K, 2757 kPa, m1 = 0.5972): 759.44 ± 1.5 kg/m3 | mass density (373.14 K, 10024 kPa, m1 = 0.2335): 743.18 ± 1.5 kg/m3 | mass density (373.14 K, 10201 kPa, m1 = 0.5972): 767.99 ± 1.6 kg/m3 | mass density (373.14 K, 29963 kPa, m1 = 3.368): 944.93 ± 1.9 kg/m3 | mass density (373.14 K, 29993 kPa, m1 = 0.5972): 788.87 ± 1.6 kg/m3 | mass density (373.14 K, 39934 kPa, m1 = 3.368): 952.72 ± 1.9 kg/m3 | mass density (373.14 K, 49924 kPa, m1 = 3.368): 960.01 ± 1.9 kg/m3 | mass density (373.14 K, 60080 kPa, m1 = 3.368): 966.95 ± 1.9 kg/m3 | mass density (373.14 K, 69925 kPa, m1 = 3.368): 973.28 ± 2 kg/m3 | mass density (373.14 K, 79738 kPa, m1 = 0.5972): 829.02 ± 1.8 kg/m3 | mass density (373.14 K, 80004 kPa, m1 = 0.2335): 806.27 ± 1.8 kg/m3 | mass density (373.14 K, 80063 kPa, m1 = 3.368): 979.45 ± 2 kg/m3 | mass density (373.14 K, 89993 kPa, m1 = 3.368): 985.2 ± 2 kg/m3 | mass density (373.14 K, 89994 kPa, m1 = 2.272): 930.92 ± 1.9 kg/m3 | mass density (373.14 K, 99876 kPa, m1 = 3.368): 990.71 ± 2 kg/m3 | mass density (373.15 K, 1026 kPa, m1 = 0.9499): 780.35 ± 1.6 kg/m3 | mass density (373.15 K, 1235 kPa, m1 = 0.2335): 732.64 ± 1.5 kg/m3 | mass density (373.15 K, 1415 kPa, m1 = 2.833): 892.25 ± 1.8 kg/m3 | mass density (373.15 K, 5002 kPa, m1 = 2.833): 895.82 ± 1.8 kg/m3 | mass density (373.15 K, 5004 kPa, m1 = 0.2335): 737.23 ± 1.5 kg/m3 | mass density (373.15 K, 5019 kPa, m1 = 1.462): 817.48 ± 1.6 kg/m3 | mass density (373.15 K, 5412 kPa, m1 = 0.9499): 785.62 ± 1.6 kg/m3 | mass density (373.15 K, 10004 kPa, m1 = 2.833): 900.66 ± 1.8 kg/m3 | mass density (373.15 K, 10068 kPa, m1 = 0.9499): 790.99 ± 1.6 kg/m3 | mass density (373.15 K, 19935 kPa, m1 = 0.9499): 801.67 ± 1.6 kg/m3 | mass density (373.15 K, 19957 kPa, m1 = 2.833): 909.82 ± 1.8 kg/m3 | mass density (373.15 K, 19985 kPa, m1 = 0.2335): 754.93 ± 1.5 kg/m3 | mass density (373.15 K, 29956 kPa, m1 = 2.833): 918.4 ± 1.8 kg/m3 | mass density (373.15 K, 29974 kPa, m1 = 0.9499): 811.66 ± 1.6 kg/m3 | mass density (373.15 K, 39236 kPa, m1 = 0.9499): 820.14 ± 1.7 kg/m3 | mass density (373.15 K, 39984 kPa, m1 = 2.833): 926.44 ± 1.9 kg/m3 | mass density (373.15 K, 40001 kPa, m1 = 0.2335): 774.75 ± 1.6 kg/m3 | mass density (373.15 K, 49979 kPa, m1 = 2.272): 904.77 ± 1.8 kg/m3 | mass density (373.15 K, 50002 kPa, m1 = 2.833): 933.93 ± 1.9 kg/m3 | mass density (373.15 K, 50023 kPa, m1 = 0.9499): 829.23 ± 1.7 kg/m3 | mass density (373.15 K, 59924 kPa, m1 = 2.833): 940.87 ± 1.9 kg/m3 | mass density (373.15 K, 59926 kPa, m1 = 0.9499): 836.92 ± 1.7 kg/m3 | mass density (373.15 K, 59977 kPa, m1 = 1.462): 867.61 ± 1.8 kg/m3 | mass density (373.15 K, 59987 kPa, m1 = 0.2335): 791.31 ± 1.7 kg/m3 | mass density (373.15 K, 69784 kPa, m1 = 2.833): 947.33 ± 1.9 kg/m3 | mass density (373.15 K, 69895 kPa, m1 = 0.9499): 844.11 ± 1.8 kg/m3 | mass density (373.15 K, 69979 kPa, m1 = 1.462): 874.66 ± 1.8 kg/m3 | mass density (373.15 K, 69994 kPa, m1 = 0.5972): 822.13 ± 1.7 kg/m3 | mass density (373.15 K, 79936 kPa, m1 = 0.9499): 850.88 ± 1.8 kg/m3 | mass density (373.15 K, 80021 kPa, m1 = 2.833): 953.61 ± 1.9 kg/m3 | mass density (373.15 K, 89926 kPa, m1 = 2.833): 959.33 ± 1.9 kg/m3 | mass density (373.15 K, 89934 kPa, m1 = 0.5972): 835.63 ± 1.8 kg/m3 | mass density (373.15 K, 89945 kPa, m1 = 0.9499): 857.23 ± 1.8 kg/m3 | mass density (373.15 K, 89956 kPa, m1 = 0.2335): 812.23 ± 1.8 kg/m3 | mass density (373.15 K, 99845 kPa, m1 = 2.833): 964.74 ± 2 kg/m3 | mass density (373.15 K, 99866 kPa, m1 = 0.5972): 840.98 ± 1.8 kg/m3 | mass density (373.15 K, 99874 kPa, m1 = 0.2335): 817.91 ± 1.8 kg/m3 | mass density (373.15 K, 99968 kPa, m1 = 0.9499): 863.3 ± 1.9 kg/m3
